Each structure is given as a SMILES string.

These results are taken from a melting point compilation (Tetko et al.; mined from patent text by program, amines drawn as free bases though some values may be those of a salt).

Compound `CC(C)(Br)C(=O)NOCc1ccccc1` came in with a melting point of 88.6 to 91.1 °C.

As for `CC(C)(C)c1cc(-c2cn3ccsc3n2)cc(C(C)(C)C)c1O`, the melting point fell in the range of 184 to 185 °C.

With `CCn1ncc(C(=O)c2ccc(S(C)(=O)=O)c(CO)c2Cl)c1O`, the melting point is 70 to 76 °C.

Turning to `CCCc1cc(O)nc(SC)n1`, the melting point is 158 °C.

Take `CCCc1nc2c(N)nc3ccccc3c2n1CCCCCCCCCCCC(=O)NC`: the melting point was 135 to 137 °C.

As for `CCc1cc(CCN2C(=O)c3ccccc3C2=O)c(=O)[nH]c1C`, the melting point lay within 232 to 233 °C.

In turn, `C#Cc1ccc(Oc2ccc(C(=O)C(=O)c3cccc(C(=O)C(=O)c4ccc(Oc5ccc(C#C)cc5)cc4)c3)cc2)cc1` yielded a melting point of 120 to 121 °C.

On to `CC(=O)OCCN1C(=O)C(=Cc2cc(C(C)(C)C)c(O)c(C(C)(C)C)c2)SC1=S`, for which the melting point was 140 to 143 °C.

Compound `O=S(=O)(N[C@H](CO)[C@@H](c1cc(F)cc(F)c1)C(F)(F)F)c1ccc(Cl)s1` showed a melting point of 126 °C.

As for `Cc1cc2c3c(cc(C)c2[nH]c1=O)C(C)C(C)(CN=[N+]=[N-])O3` (stereo not given), the melting point fell in the range of 189 to 192 °C.

In the case of `CCOC(=O)Cn1cnc2c(N3CCOCC3)nc(NC(=O)C3CCCCC3)nc21`, the melting point was in the range of 142 to 147 °C.

As to `CCOC(=O)NC(=O)C(F)F`, the melting point is 55 to 57 °C.

Consider `NC(=O)OC[C@H](Cc1ccccc1)NC(=O)OCc1ccccc1`, for which the melting point lay within 121 to 128 °C.

Compound `Cc1ccc(N(c2ccc(C)cc2)c2ccc(C=Cc3cc(O)cc(O)c3)cc2)cc1` returned a melting point of 161 °C.

In the case of `Fc1ccc(Cn2c(NC3CCN(CCOc4nc5cccnc5s4)CC3)nc3ccccc32)cc1`, the melting point stood at 151 °C.

With `CCCCCC(C(=O)O)c1ccc(Cl)cc1Cl` (stereo not given), the melting point was in the range of 65 to 68 °C.

Turning to `O=C(O)Cc1c(C(=O)O)c2cc(Oc3cc(Cl)cc(Cl)c3)ccc2n1-c1ccc(OC(F)(F)F)cc1`, the melting point was in the range of 219 to 223 °C.

Consider `S=C1NCC2(CC2)CN1`, for which the melting point is 220 to 222 °C.

`CCCCOc1ncc(I)cc1C(N)=O`: the melting point fell in the range of 163 to 166 °C.

Compound `Nc1cccnc1Nc1ccccc1C(=O)c1ccc(Cl)cc1` yielded a melting point of 145 to 146 °C.

As to `O=C(c1ccccc1)c1ccc(Nc2nc(Nc3ccc(C(=O)c4ccccc4)cc3)nc(-c3cccn3Cc3ccccc3)n2)cc1`, the melting point lay in the range of 115 to 118 °C.

In turn, `Cc1ccccc1-c1cnc2c(C(F)(F)F)cccc2c1-c1cccc(NC(=O)Nc2ccccc2Cl)c1` gave a melting point of 224 to 226 °C.

The compound `COc1ccc(-c2ccc(C)cn2)c(F)c1F` returned a melting point of 73 °C.

Turning to `O=C(O)CC1(c2ccccc2)Oc2ccc(Cl)cc2O1` (stereo not given), the melting point lay within 117 to 119 °C.

Consider `COc1ccc(-c2nc(S(=O)(=O)CC(F)(F)F)[nH]c2-c2ccc(OC)cc2)cc1`, for which the melting point lay in the range of 173 to 174 °C.

The compound `CN(CC(C)(C)c1ccc(Cl)c(Cl)c1)C(=O)Nc1c(F)cc(F)cc1CCc1cc(C(C)(C)C)c(O)c(C(C)(C)C)c1` came in with a melting point of 145 to 147 °C.

Compound `O=S(=O)(NCCCCOc1ccc(-n2ccnc2)cc1)c1cc(Cl)ccc1Cl` displayed a melting point of 144 to 146 °C.

In turn, `O=C(Nc1cccnn1)N1CCN(c2ccnc(-c3cccc(F)c3F)n2)CC1` gave a melting point of 235 to 236 °C.

Compound `CCCCCN(CCC12CC3CC(CC(C3)C1)C2)C(=O)NCc1ccncc1` showed a melting point of 96.5 to 108 °C.

`CC12CCC(O)CC1CCC1C2CCC2(C)C(C(=O)CSc3ccncc3)CCC12` (stereo not given) displayed a melting point of 154 to 156 °C.

In turn, `CC(C)(C)OC(=O)N(C(=O)OC(C)(C)C)c1cc(-c2ccc([N+](=O)[O-])cc2)n(C(=O)OC(C)(C)C)n1` showed a melting point of 154 to 155 °C.

The compound `O=C(O)c1cc(N=Nc2cc(C(=O)O)cc(SCc3ccccc3)c2C(=O)c2ccccc2)c(C(=O)c2ccccc2)c(SCc2ccccc2)c1` came in with a melting point of 218 to 220 °C.

`CCOC(=O)C=CCn1c(C(=O)c2cc(C)cc(C)c2)c(CC)c(=O)[nH]c1=O` returned a melting point of 157 to 158 °C.

With `O=C(O)CCCc1cccc(C(=O)c2ccccc2)c1`, the melting point stood at 71 °C.

For the compound `O=Cc1ccc(OC[C@H]2CO2)cc1`, the melting point was found to be 32 °C.

Take `CN1C(=O)C(C)(Cc2ccccc2)N(C)C(=O)C1=Cc1cccnc1C#N` (stereo not given): the melting point stood at 163 °C.

In turn, `COc1ccc(OC)c(C(=O)Nc2ccc(N3CCOCC3)cc2C(C)=O)c1` came in with a melting point of 172 to 174 °C.

Take `O=C(Nc1ccc(OC(F)(F)F)cc1)NC1CCN(S(=O)(=O)c2ccccc2)CC1`: the melting point lay within 188 to 189 °C.

Turning to `CS(=O)(=O)OC1Cc2ccccc2C1`, the melting point lay in the range of 75 to 77 °C.

Consider `Cn1c(C(F)(F)F)cc(=O)n(-c2ccc3snc(CC(=O)O)c3c2)c1=O`, for which the melting point was 240 to 242 °C.

As to `Cc1nc(-c2ccccc2)n(C)c1C=NOCCO`, the melting point is 95 to 97 °C.

On to `O=C(C=Cc1ccc(Cl)cc1)C(CC=Cc1ccccc1)c1ccccc1` (stereo not given), for which the melting point was in the range of 92 to 95 °C.

`CCOC(=O)C=Cc1cn(C(=O)OC(C)(C)C)c2cnc(-n3cncn3)cc12`: the melting point was in the range of 178 to 181 °C.

As for `CN(C)S(=O)(=O)c1ccc2c(c1)C(=O)c1ccccc1CC2`, the melting point was 122 to 124 °C.

The compound `COC(=O)C(Cc1ccc(OS(=O)(=O)C(F)(F)F)cc1)NC(=O)OCc1ccccc1` (stereo not given) had a melting point of 70 to 73 °C.

For `CC=C(C)c1c(-c2ccc(S(C)(=O)=O)cc2)cnn(CC(F)(F)F)c1=O`, the melting point was 175 to 180 °C.

With `O=C(Oc1ccccc1)OC1C2=C(SCCS2)C(=O)N1c1ccc(Cl)cn1` (stereo not given), the melting point was found to be 178 °C.

In turn, `CC(C)(C)[Si](C)(C)Oc1cc(Br)c2oc(-c3ccc(O[Si](C)(C)C(C)(C)C)c(F)c3)nc2c1` came in with a melting point of 98 to 99 °C.

Compound `C(=C\c1cc(/C=C/c2ccc3cc[nH]c3c2)n[nH]1)/c1cccc(OCc2ccccn2)c1` yielded a melting point of 193 to 195 °C.

As to `Cc1ccc(-c2nc(Cl)cc(N3CCN(CCO)CC3)n2)cc1`, the melting point came to 104 °C.

As for `CCCN(c1ccncc1)n1ccc2cc(OC(=O)NCc3ccccc3)ccc21`, the melting point was 156 to 158 °C.

In turn, `CN(CCOC[C@@H]1CC(c2ccc(-c3ccc(N4C[C@H](Cn5ccnn5)OC4=O)cc3F)cn2)=NO1)CC(=O)O` came in with a melting point of 135 to 140 °C.

`COC(=O)c1scc(-c2ccccc2)c1N` gave a melting point of 64 to 66 °C.

In turn, `CC(=O)OCc1csc(Nc2ccc(Oc3ccccc3)cn2)n1` returned a melting point of 158 to 160 °C.

Regarding `CN(C)CC(=O)N1CCN(Cc2ccc3c(c2)Cc2c(-c4ccsc4)n[nH]c2-3)CC1`, the melting point fell in the range of 190 to 192 °C.

In the case of `NC(=O)CCN1CCC(c2noc3cc(F)ccc23)CC1`, the melting point lay within 144 to 147 °C.

For the compound `CCOC(=O)C(=NOCCBr)c1csc(N)n1`, the melting point fell in the range of 111 to 114 °C.

As for `CCCCC(=O)Nc1ccc(C(F)(F)F)c(-n2nc(CC)n(Cc3ccc(-c4ccccc4S(=O)(=O)NC(C)(C)C)cc3F)c2=O)c1`, the melting point was in the range of 243 to 245 °C.

Consider `Cn1nc(C(=O)Nc2ccc(OCC(C)(C)C)c(C#N)c2)cc1-c1ccccc1`, for which the melting point is 156 to 157 °C.

As for `O=C(N[C@H]1CC[C@H](CCN2CCN(c3nccc4c3CCO4)CC2)CC1)c1ccc2c(c1)OCO2`, the melting point came to 244 °C.
